Test results as given in PubChem BioAssay AID2060501 (Molecular Pharmacology Branch, DTP, NCI, 2025).
pIC50: −log10 of the molar value.

Tested on: 282377-053-R-J1-PDC complex spheroids, viability
Experiment: Anticancer human tumor 282377-053-R-J1-PDC patient-derived colon adenocarcinoma cell line growth inhibition [GQUAD]
Conditions: for pIC50: curve of first compound; for viability, T/C: stronger effect = lower value
How it was run: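 Viability of tumor cells grown as complex spheroids with endothelial and stromal cells, exposed to drug combinations. Top concentration at or near clinical Cmax (else 10 microM), diluted in half-log increments.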

[1] = second compound 0.0316 µM, first compound 0.0316 µM
[2] = second compound 0.0316 µM, first compound 0.1 µM
[3] = second compound 0.0316 µM, first compound 0.316 µM
[4] = second compound 0.0316 µM, first compound 1 µM
[5] = second compound 0.0316 µM, first compound 3.16 µM
[6] = second compound 0.0316 µM, first compound 10 µM
[7] = second compound 0.1 µM, first compound 0.0316 µM
[8] = second compound 0.1 µM, first compound 0.1 µM
[9] = second compound 0.1 µM, first compound 0.316 µM
[10] = second compound 0.1 µM, first compound 1 µM
[11] = second compound 0.1 µM, first compound 3.16 µM
[12] = second compound 0.1 µM, first compound 10 µM
[13] = second compound 0.316 µM, first compound 0.0316 µM
[14] = second compound 0.316 µM, first compound 0.1 µM
[15] = second compound 0.316 µM, first compound 0.316 µM
[16] = second compound 0.316 µM, first compound 1 µM
[17] = second compound 0.316 µM, first compound 3.16 µM
[18] = second compound 0.316 µM, first compound 10 µM
[19] = second compound 1 µM, first compound 0.0316 µM
[20] = second compound 1 µM, first compound 0.1 µM
[21] = second compound 1 µM, first compound 0.316 µM
[22] = second compound 1 µM, first compound 1 µM
[23] = second compound 1 µM, first compound 3.16 µM
[24] = second compound 1 µM, first compound 10 µM
[25] = second compound 3.16 µM, first compound 0.0316 µM
[26] = second compound 3.16 µM, first compound 0.1 µM
[27] = second compound 3.16 µM, first compound 0.316 µM
[28] = second compound 3.16 µM, first compound 1 µM
[29] = second compound 3.16 µM, first compound 3.16 µM
[30] = second compound 3.16 µM, first compound 10 µM
[31] = second compound 10 µM, first compound 0.0316 µM
[32] = second compound 10 µM, first compound 0.1 µM
[33] = second compound 10 µM, first compound 0.316 µM
[34] = second compound 10 µM, first compound 1 µM
[35] = second compound 10 µM, first compound 3.16 µM
[36] = second compound 10 µM, first compound 10 µM
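Also: spheroids exposed to compounds for 7 days before readout.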
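For viability, T/C in this document: percent of vehicle DMSO control viability with 100% = untreated-like growth.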

In the case of `C#Cc1c(F)ccc2cc(O)cc(-c3ncc4c(N5CC6CCC(C5)N6)nc(OCC56CCCN5CC(F)C6)nc4c3F)c12` (stereo unspecified) + CN(C)c1ccc(Nc2c3ccc(NC(=O)CCN4CCCC4)cc3nc3cc(NC(=O)CCN4CCCC4)ccc23)cc1, the pIC50 (second compound 0.0316 µM) was < 5.00, the pIC50 (second compound 0.1 µM) was < 5.00 and the pIC50 (second compound 0.316 µM) was < 5.00. For the same molecule, the pIC50 (second compound 1 µM) was < 5.00, the pIC50 (second compound 3.16 µM) was < 5.00 and the pIC50 (second compound 10 µM) was < 5.00. It also gave a viability, T/C [1] of 98%, a viability, T/C [2] of 108% and a viability, T/C [3] of 89.1%. The viability, T/C [4] was 98.2%, the viability, T/C [5] was 84.2% and the viability, T/C [6] was 82.4%. For the same molecule, the viability, T/C [7] was 103%, the viability, T/C [8] was 97.1% and the viability, T/C [9] was 79.2%. The viability, T/C [10] was 74.5%, the viability, T/C [11] was 88.7% and the viability, T/C [12] was 67.6%. For the same molecule, the viability, T/C [13] was 93.7%, the viability, T/C [14] was 87.7% and the viability, T/C [15] was 87.4%. For the same molecule, the viability, T/C [16] was 79.9%, the viability, T/C [17] was 73.1% and the viability, T/C [18] was 74%. It also gave a viability, T/C [19] of 87.5%, a viability, T/C [20] of 78.1% and a viability, T/C [21] of 70.7%. It also gave a viability, T/C [22] of 89.9%, a viability, T/C [23] of 91.2% and a viability, T/C [24] of 78.4%. The viability, T/C [25] was 78.9%, the viability, T/C [26] was 75.2% and the viability, T/C [27] was 86.6%. It also gave a viability, T/C [28] of 77.3%, a viability, T/C [29] of 91.7% and a viability, T/C [30] of 88.7%. For the same molecule, the viability, T/C [31] was 83.1%, the viability, T/C [32] was 81.8% and the viability, T/C [33] was 91.8%. It also gave a viability, T/C [34] of 73.5%, a viability, T/C [35] of 90.8% and a viability, T/C [36] of 87.6%.

Work on `CC(=O)O[C@H]1C(=O)[C@@]2(C)[C@H]([C@H](OC(=O)c3ccccc3)[C@]3(O)C[C@H](OC(=O)[C@H](O)[C@@H](NC(=O)c4ccccc4)c4ccccc4)C(C)=C1C3(C)C)[C@]1(OC(C)=O)CO[C@@H]1C[C@@H]2O` + CN(C)c1ccc(Nc2c3ccc(NC(=O)CCN4CCCC4)cc3nc3cc(NC(=O)CCN4CCCC4)ccc23)cc1 yielded a pIC50 (second compound 0.0316 µM) of 7.38, a pIC50 (second compound 0.1 µM) of 7.35 and a pIC50 (second compound 0.316 µM) of 7.31. For the same molecule, the pIC50 (second compound 1 µM) was 7.46, the pIC50 (second compound 3.16 µM) was 7.41 and the pIC50 (second compound 10 µM) was > 7.50. The viability, T/C [1] was 59.7%, the viability, T/C [2] was 14.9% and the viability, T/C [3] was 18.9%. The viability, T/C [4] was 18.1%, the viability, T/C [5] was 22% and the viability, T/C [6] was 25.2%. It also gave a viability, T/C [7] of 63.1%, a viability, T/C [8] of 15.6% and a viability, T/C [9] of 17.4%. It also gave a viability, T/C [10] of 17.6%, a viability, T/C [11] of 21.3% and a viability, T/C [12] of 25.8%. The viability, T/C [13] was 68%, the viability, T/C [14] was 17.1% and the viability, T/C [15] was 18.5%. It also gave a viability, T/C [16] of 18.1%, a viability, T/C [17] of 19.1% and a viability, T/C [18] of 28.9%. It also gave a viability, T/C [19] of 52.5%, a viability, T/C [20] of 15.7% and a viability, T/C [21] of 18.1%. It also gave a viability, T/C [22] of 17.4%, a viability, T/C [23] of 26.8% and a viability, T/C [24] of 25%. For the same molecule, the viability, T/C [25] was 56.7%, the viability, T/C [26] was 18.4% and the viability, T/C [27] was 16.8%. For the same molecule, the viability, T/C [28] was 17.2%, the viability, T/C [29] was 19.2% and the viability, T/C [30] was 24.7%. For the same molecule, the viability, T/C [31] was 47.2%, the viability, T/C [32] was 14.8% and the viability, T/C [33] was 14.5%. For the same molecule, the viability, T/C [34] was 18.8%, the viability, T/C [35] was 22.8% and the viability, T/C [36] was 28.4%.

`CCCS(=O)(=O)Nc1ccc(F)c(C(=O)c2c[nH]c3ncc(-c4ccc(Cl)cc4)cc23)c1F` + CN(C)c1ccc(Nc2c3ccc(NC(=O)CCN4CCCC4)cc3nc3cc(NC(=O)CCN4CCCC4)ccc23)cc1 showed a pIC50 (second compound 0.0316 µM) of 5.35, a pIC50 (second compound 0.1 µM) of 5.46 and a pIC50 (second compound 0.316 µM) of 5.53. The pIC50 (second compound 1 µM) was 5.41, the pIC50 (second compound 3.16 µM) was 5.48 and the pIC50 (second compound 10 µM) was 5.43. It also gave a viability, T/C [1] of 81%, a viability, T/C [2] of 66% and a viability, T/C [3] of 58%. The viability, T/C [4] was 69.9%, the viability, T/C [5] was 64.5% and the viability, T/C [6] was 16.9%. For the same molecule, the viability, T/C [7] was 68.1%, the viability, T/C [8] was 56% and the viability, T/C [9] was 59.3%. For the same molecule, the viability, T/C [10] was 61.4%, the viability, T/C [11] was 52.8% and the viability, T/C [12] was 19.4%. It also gave a viability, T/C [13] of 74.8%, a viability, T/C [14] of 65.7% and a viability, T/C [15] of 74.7%. The viability, T/C [16] was 49.3%, the viability, T/C [17] was 57.2% and the viability, T/C [18] was 15.6%. It also gave a viability, T/C [19] of 79.8%, a viability, T/C [20] of 60.9% and a viability, T/C [21] of 89.3%. For the same molecule, the viability, T/C [22] was 57.6%, the viability, T/C [23] was 59.2% and the viability, T/C [24] was 23.6%. The viability, T/C [25] was 73.3%, the viability, T/C [26] was 72.5% and the viability, T/C [27] was 68.7%. The viability, T/C [28] was 67.1%, the viability, T/C [29] was 50.6% and the viability, T/C [30] was 21.6%. For the same molecule, the viability, T/C [31] was 82.1%, the viability, T/C [32] was 70.6% and the viability, T/C [33] was 75.6%. The viability, T/C [34] was 52.3%, the viability, T/C [35] was 65% and the viability, T/C [36] was 14.2%.
